Experimental data published in article PMC8252068, “Biochemical Investigation of the Interaction of pICln, RioK1 and COPR5 with the PRMT5–MEP50 Complex” (Chembiochem, 2021).
Where two headings read alike, the source gives them in different places. Where a SMILES comes first, the peptide text is derived from it. The star is where a group is joined. FITC = O=C1OC2(c3ccc(O)cc3Oc3cc(O)ccc32)c2ccc(NC(=S)*)cc21; AEEA = NCCOCCOCC(=O)O

Key:
[1] = target: T1, native PRMT5–MEP50 complex (Homo sapiens, UniProt O14744+Q9BQA1); test: Fluorescence polarisation direct binding assay, full-length PRMT5–MEP50; conditions: 20-21 °C, n=3
T1 construct: Full‐length PRMT5–MEP50; 6His-MBP with 3C site (N, cleaved yes); made in house; host or cells: HighFive insect cells (flashBAC baculovirus system)
T1 sequence (O14744 whole entry): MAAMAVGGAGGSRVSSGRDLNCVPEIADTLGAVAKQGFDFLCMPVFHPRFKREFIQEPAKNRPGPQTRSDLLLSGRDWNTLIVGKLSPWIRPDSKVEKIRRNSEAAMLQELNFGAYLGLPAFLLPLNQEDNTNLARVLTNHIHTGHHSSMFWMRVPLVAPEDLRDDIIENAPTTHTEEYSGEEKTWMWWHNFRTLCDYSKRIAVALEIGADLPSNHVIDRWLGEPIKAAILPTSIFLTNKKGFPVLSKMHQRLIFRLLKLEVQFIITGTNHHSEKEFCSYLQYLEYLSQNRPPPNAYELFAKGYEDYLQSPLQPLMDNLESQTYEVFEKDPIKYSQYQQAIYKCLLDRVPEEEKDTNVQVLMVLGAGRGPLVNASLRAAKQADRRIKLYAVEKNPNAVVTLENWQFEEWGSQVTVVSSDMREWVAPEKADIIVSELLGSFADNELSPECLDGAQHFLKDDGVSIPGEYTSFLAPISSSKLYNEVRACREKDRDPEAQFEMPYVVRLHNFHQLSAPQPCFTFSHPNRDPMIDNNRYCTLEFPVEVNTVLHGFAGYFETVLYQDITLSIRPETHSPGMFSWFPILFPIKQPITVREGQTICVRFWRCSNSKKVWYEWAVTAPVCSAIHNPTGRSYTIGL
T1 sequence (Q9BQA1 whole entry partner): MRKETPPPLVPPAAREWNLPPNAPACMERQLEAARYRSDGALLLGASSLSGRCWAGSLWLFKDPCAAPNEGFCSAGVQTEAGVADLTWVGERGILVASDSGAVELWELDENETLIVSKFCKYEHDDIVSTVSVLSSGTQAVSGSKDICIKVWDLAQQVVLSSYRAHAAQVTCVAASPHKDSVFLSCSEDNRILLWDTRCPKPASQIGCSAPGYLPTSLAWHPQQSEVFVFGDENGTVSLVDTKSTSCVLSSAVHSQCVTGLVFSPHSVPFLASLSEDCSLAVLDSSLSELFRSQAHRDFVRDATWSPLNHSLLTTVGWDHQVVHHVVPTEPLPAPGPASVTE
Source text: (§1) All proteins were expressed at the Protein Chemistry Facility (PCF) based in the MPI Dortmund.
For expression of the proteins, all constructs were subcloned into pOPIN vectors. […]
(§2) Expression of full-length human RioK1 tagged with 6NHis-3C and co-expression of full-length human PRMT5 (N-terminal 6His-MBP with 3C) with MEP50 (N-terminal 6His-TRX with 3C), and of TIM barrel (1-292 aa) with MEP50 (both N-terminally tagged with His-TRX with 3C cleavage site) was done using the Flash Bac Expression System (Oxford Expression Technologies, UK) with HighFive insect cells in Gibco Sf-900 III SFM medium. The cells were harvested by centrifugation and lysed.
(§3) All proteins were purified at the PCF (MPI Dortmund).
(§4) Protein purification was performed on HisTrap FF crude 5 ml Ni-based column, followed by the on-column treatment with 6His-tagged HRV-3C PreScission protease, or in case of the SUMO-tagged TIM barrel, with 6His-tagged SUMO protease. The cleaved proteins were then further purified using gel filtration chromatography with the HiLoad 26/60 Superdex 75 or 200 prep grade column. PRMT5 -MEP50, TIM-MEP50 and TIM barrel were stored in a buffer containing 50 mM HEPES, 250 mM NaCl, 1 mM TCEP with the pH adjusted to 8.0, whereas, pICln was stored in a buffer of 20 mM phosphate, 100 mM NaCl, 5 mM TCEP and pH of 7.5, whereas RioK1 was stored in a buffer of 50 mM Tris, 200 mM NaCl, 10% glycerol, 1 […]
(§5) Protein Labelling with Alexa 488
(§6) To a protein solution (ca. 1 mg/ml) in 0.2 M bicarbonate buffer with 1 mM TCEP at pH 8.3, was added 10 mM Alexa 488 NHS-ester in DMSO (8 equiv), and the mixture was kept on ice, in darkness, overnight. The protein was washed eight times with buffer (50 mM HEPES, 250 mM NaCl, 1 mM TCEP, 8.0 pH) using an Amicon® Ultra-0.5 mL spin filter. Protein concentration was then determined using the NanoDrop […]
(§7) Fluorescence Polarisation (FP)
(§8) The assay was performed in a buffer of 50 mM HEPES, 250 mM NaCl, 1 mM TCEP, 0.01% (v/v) Tween 20, pH 8.0, in black, 384 well-plates, with a total volume of 10 μl per well. The analysed, FITC labelled peptides, or Alexa488-labelled pICln or RioK1, were tested at a final concentration of 1 nM, and the appropriate unlabelled protein was titrated as two-fold dilution series. The plates were incubated at 20-21 °C for 30 min in case of FITC -labelled peptides or 1-2h in case of the Alexa488-labelled protein, and analysed on a plate reader using 485 nm excitation and 535 nm emission wavelength. The assay was performed in […]

[2] = target: T2, TIM–MEP50 complex (PRMT5 residues 1–292 co-expressed with MEP50) (Homo sapiens, UniProt O14744+Q9BQA1); test: Fluorescence polarisation direct binding assay, TIM–MEP50; conditions: 20-21 °C, n=3
T2 construct: truncated PRMT5 protein (residues 1–292), corresponding to the TIM barrel domain, was either expressed alone or co‐expressed as a complex with MEP50; His-TRX with 3C cleavage site (N, cleaved yes); made in house; host or cells: HighFive insect cells (flashBAC baculovirus system)
T2 sequence (O14744 1-292): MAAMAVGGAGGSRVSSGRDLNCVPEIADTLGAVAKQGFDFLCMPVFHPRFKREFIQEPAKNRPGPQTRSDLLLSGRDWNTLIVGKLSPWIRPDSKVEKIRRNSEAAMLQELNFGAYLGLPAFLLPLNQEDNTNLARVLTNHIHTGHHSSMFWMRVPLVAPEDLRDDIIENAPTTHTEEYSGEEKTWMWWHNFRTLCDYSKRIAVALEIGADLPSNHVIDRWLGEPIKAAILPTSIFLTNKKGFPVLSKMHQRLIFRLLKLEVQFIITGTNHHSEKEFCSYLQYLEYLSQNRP
T2 sequence (Q9BQA1 whole entry partner, the tested form may be a part): as the sequence (Q9BQA1 whole entry partner) above
Method: as §1
(§9) For expression of the proteins, all constructs were subcloned into pOPIN vectors.
(§10) Full-length human pICln, N-terminally tagged with 6His-TRX followed by the 3C cleavage site, and TIM barrel domain (1-292 aa) of human PRMT5, N-terminally tagged with 6His-SUMO, were expressed in BL21 CodonPlus (DE3) RIPL strain of Escherichia coli. Bacteria with the respective plasmids were cultured in Terrific Broth medium. Expression of TIM barrel was auto-induced, with incubation of the starter-culture (starting OD of ~0.05) at 35 °C for 2.5h, followed by an overnight incubation (20 -24h) at 25 °C. Expression of pICln was induced at OD ~0.6-0.8 using 0.3 mM IPTG and E. coli was incubated at 20 °C for 20h. Bacteria were harvested by centrifugation and lysed.
as §2, §3, §4, §5, §6, §7, §8

[3] = target: T3, TIM barrel domain of PRMT5 (residues 1–292) (Homo sapiens, UniProt O14744); test: Fluorescence polarisation direct binding assay, isolated TIM barrel
T3 construct: barrel domain (1-292 aa) of human PRMT5, N-terminally tagged with 6His-SUMO; 6His-SUMO (N, cleaved yes); made in house; host or cells: Escherichia coli BL21 CodonPlus (DE3) RIPL
T3 sequence (O14744 1-292): as the sequence (O14744 1-292) above
Method: as §1, §9
as §10, with “lysed. […]” for “lysed.”
To a protein solution (ca. 1 mg/ml) in 0.2 M bicarbonate buffer with 1 mM TCEP at pH 8.3, was added 10 mM Alexa 488 NHS-ester in DMSO (8 equiv), and the mixture was kept on ice, in darkness, overnight. […] Protein concentration was then determined using the NanoDrop […]
as §7
as §8, with “wavelength.” for “wavelength. The assay was performed in”

PRMT5–MEP50 = target: T4, PRMT5–MEP50 (Homo sapiens, UniProt O14744+Q9BQA1); test: Flow induced dispersion analysis (FIDA), PRMT5–MEP50; type: binding; conditions: technical triplicate
T4 construct: Full‐length PRMT5–MEP50; 6His-MBP with 3C site (N, cleaved yes); made in house; host or cells: HighFive insect cells (flashBAC baculovirus system)
T4 sequence (O14744 whole entry): as the sequence (O14744 whole entry) above
T4 sequence (Q9BQA1 whole entry partner): as the sequence (Q9BQA1 whole entry partner) above
Method: (§11) Nucleodur C18 Gravity column, with a flow rate of 0.56 ml/min, and the samples obtained from the stability assay were tested using 125 mm x 3 mm, 5 μm Macherey-Nagel Nucleodur C4 Gravity at a flow rate of 1 ml/min, in both cases using elution system: 5% → 65% MeCN (0.1% TFA) in H2O (0.1% TFA) over 14 min. HRMS analyses were performed on a LTQ Orbitrap mass spectrometer (Thermo Fisher Scientific, USA) using electrospray ionization. Concentrations of PRMT5 -MEP50, TIM -MEP50 and TIM were measured with the Bradford assay, using Protein Assay Dye Reagent from Bio -Rad (Cat. #500-0006; Bio- […]

TIM–MEP50 = target: T5, TIM–MEP50 (Homo sapiens, UniProt O14744+Q9BQA1); test: Flow induced dispersion analysis (FIDA), TIM–MEP50; type: binding; conditions: technical triplicate
T5 construct: truncated PRMT5 protein (residues 1–292), corresponding to the TIM barrel domain, was either expressed alone or co‐expressed as a complex with MEP50; His-TRX with 3C cleavage site (N, cleaved yes); made in house; host or cells: HighFive insect cells (flashBAC baculovirus system)
T5 sequence (O14744 1-292): as the sequence (O14744 1-292) above
T5 sequence (Q9BQA1 whole entry partner, the tested form may be a part): as the sequence (Q9BQA1 whole entry partner) above
Method: as §11

[4] = FP using the native PRMT5–MEP50 complex, FITC peptide 1 nM, pH 8.0, 30 min, n.b. = no binding, read-out: K D (Table 2, peptides 1–16)
[5] = FP direct binding, FITC peptide 1 nM, protein titrated, HEPES buffer pH 8.0, 30 min, n.b. = no binding, read-out: K D value, TIM–MEP50

For `CC(C)[C@H](NC(=O)[C@H](CCCNC(=N)N)NC(=O)[C@H](CO)NC(=O)COCCOCCNC(=S)Nc1ccc2c(c1)C(=O)OC21c2ccc(O)cc2Oc2cc(O)ccc21)C(=O)N[C@H](C(=O)N1CCC[C@H]1C(=O)NCC(=O)N[C@@H](CCC(N)=O)C(=O)N[C@@H](Cc1ccccc1)C(=O)N[C@@H](CC(=O)O)C(=O)N[C@@H](CC(=O)O)C(=O)N[C@@H](C)C(=O)N[C@@H](CC(=O)O)C(N)=O)C(C)C` [compound 1] ({FITC-AEEA}-SRVVPGQFDDAD-NH2), the Kd [1, 4] was 522 ± 45 nM, the Kd [2, 5] was 840 ± 150 nM and the Kd [3] was 2800 ± 70 nM.

In the case of `CC(C)[C@H](NC(=O)[C@@H](NC(=O)[C@@H]1CCCN1C(=O)[C@@H](NC(=O)COCCOCCNC(=S)Nc1ccc2c(c1)C(=O)OC21c2ccc(O)cc2Oc2cc(O)ccc21)[C@@H](C)O)[C@@H](C)O)C(=O)N[C@@H](C)C(=O)NCC(=O)N[C@@H](CCC(N)=O)C(=O)N[C@@H](Cc1ccccc1)C(=O)N[C@@H](CCC(=O)O)C(=O)N[C@@H](CC(=O)O)C(=O)N[C@@H](C)C(=O)N[C@@H](CC(=O)O)C(N)=O` [compound 2] ({FITC-AEEA}-TPTVAGQFEDAD-NH2), the Kd [1, 4] is reported as 1140 ± 38 nM, the Kd [2, 5] is reported as 2100 ± 150 nM and the Kd [3] is reported as 5800 ± 110 nM.

Compound `CSCC[C@H](NC(=O)COCCOCCNC(=S)Nc1ccc2c(c1)C(=O)OC21c2ccc(O)cc2Oc2cc(O)ccc21)C(=O)N[C@H](C(=O)N[C@@H](Cc1ccccc1)C(=O)N[C@@H](CCC(=O)O)C(=O)N[C@H](C(=O)NCC(=O)N[C@@H](CCC(N)=O)C(=O)N[C@@H](Cc1ccccc1)C(=O)N[C@@H](CC(=O)O)C(=O)N[C@@H](CC(=O)O)C(=O)N[C@@H](C)C(=O)N[C@@H](CCC(=O)O)C(=O)N[C@@H](CC(=O)O)C(N)=O)[C@@H](C)O)C(C)C` [compound 3] ({FITC-AEEA}-MVFETGQFDDAED-NH2) has a Kd [1, 4] of 549 ± 119 nM, a Kd [2, 5] of 460 nM and a Kd [3] of 2400 ± 320 nM.

“Fitc‐O2Oc‐PTVAGQF‐NH2 [compound 4, DAB1 derived, fluorescently labelled linear peptide]” was tested, and the “K D value, Full‐length PRMT5–MEP50” value ([1]; FP direct binding, FITC peptide 1 nM, protein titrated two-fold, 50 mM HEPES, 250 mM NaCl, 1 mM TCEP, 0.01% Tween 20, pH 8.0, 30 min, n.b. = no binding) was “did not have affinity and n.b”, the “K D (Table 2, peptides 1–16)” value ([1]; FP using the native PRMT5–MEP50 complex, FITC peptide 1 nM, pH 8.0, 30 min, n.b. = no binding) was “n.b” and the “K D value, TIM–MEP50” value ([2]; FP direct binding, FITC peptide 1 nM, protein titrated, HEPES buffer pH 8.0, 30 min, n.b. = no binding) was “did not have affinity and n.b”.

Work on “pICln-Alexa488: full-length human pICln labelled with the fluorescent dye Alexa488” yielded a Kd (PRMT5–MEP50; Supplement Table S4, indicator 10 nM, 25 °C, read-out: Affinity constant, PRMT5-MEP50 (Table S4, FIDA)) of 39.3 nM, a Kd (PRMT5–MEP50; indicator (Alexa488-labelled protein) 10 nM, HEPES buffer pH 8.0, 0.01% Tween 20, 25 °C, read-out: K D for PRMT5–MEP50 (FIDA)) of 39.3 nM and a Kd ([1]; FP, Alexa488-labelled protein 1 nM, unlabelled complex titrated, pH 8.0, 1-2h, read-out: K D of Alexa488-labelled adaptor protein for PRMT5–MEP50 (FP)) of 9.1 ± 1.5 nM. For the same compound, the Kd ([2]; FP, Alexa488-labelled protein 1 nM, unlabelled complex titrated, pH 8.0, 1-2h, read-out: K D of Alexa488-labelled adaptor protein for TIM–MEP50 (FP)) was 4.1 ± 0.6 nM, the Kd (TIM–MEP50; Supplement Table S4, indicator 10 nM, 25 °C, read-out: Affinity constant, TIM-MEP50 (Table S4, FIDA)) was 64.1 nM and the Kd (TIM–MEP50; indicator (Alexa488-labelled protein) 10 nM, HEPES buffer pH 8.0, 0.01% Tween 20, 25 °C, read-out: K D for TIM–MEP50 (FIDA)) was 64.1 nM.
